{
  "source": "patent US20110195845A1",
  "about": "“Constructs for Expressing Herbicide Tolerance Genes, Related Plants, and Related Trait Combinations” (Dow AgroSciences LLC, priority 2008, published 2011)",
  "key": {"[1]": {"tested_on": "PAT gene + AAD-12 transformed T1 Arabidopsis", "assay": "T1 Arabidopsis response to glufosinate applied postemergence", "type": "in vivo, Arabidopsis thaliana", "details": "2 WAT", "experimental": "(§1) Seven days after planting (DAP) and again 11 DAP, T1 plants (cotyledon and 2-4-1f stage, respectively) were sprayed with a 0.016% solution of 2,4-D herbicide (456 g ae/L 2,4-D Amine 4, Dow AgroSciences LLC, Indianapolis, Ind.) at a spray volume of 10 ml/tray (703 L/ha) using a DeVilbiss compressed air spray tip to deliver an effective rate of 50 g ae/ha 2,4-D DMA per application. Survivors (plants actively growing) were identified 4-7 days after the final spraying and transplanted individually into 3-inch pots prepared with potting media (Metro Mix 360). Transplanted plants were covered with humidity domes for 3-4 days and placed in a 22° C. growth chamber as before or moved to directly to the greenhouse. Domes were subsequently removed and plants reared in the greenhouse (22±5° C., 50±30% RH, 14 h light:10 dark, minimum 500 μE/m^2s^1 natural+supplemental light) at least 1 day prior to testing for the ability of DSM-2 (v2) to provide glufosinate herbicide resistance.\n(§2) T1 plants were then randomly assigned to various rates of glufosinate. For Arabidopsis 140 g ai/ha glufosinate is an effective dose to distinguish sensitive plants from ones with meaningful levels of resistance. Elevated rates were also applied to determine relative levels of resistance (280, 560, or 1120 g ai/ha).\n(§3) All glufosinate herbicide applications were applied by track sprayer in a 187 L/ha spray volume. The commercial Liberty™ formulation (200 g ai/L, Bayer Crop Science, Research Triangle Park, N.C.).\n(§4) The first Arabidopsis transformations were conducted using DSM-2 (v2) (plant optimized gene). T1 transformants were first selected from the background of untransformed seed using a 2,4-D DMA selection scheme. Over 100,000 T1 seed were screened and 260 2,4-D resistant plants (AAD-12 gene) were identified, equating to a transformation/selection frequency of 0.26% which is slightly higher than the normal range of selection frequency of constructs where AAD-12+2,4-D are used for selection. T1 plants selected above were subsequently transplanted to individual pots and sprayed with various rates of commercial glufosinate herbicide. Table 10 compares the response of DSM-2 (v2) and control genes to impart glufosinate resistance to Arabidopsis T1 transformants. Response is presented in terms of % visual injury 2 WAT. […] Since each T1 is an independent transformation event, one can expect significant variation of individual T1 responses within a given rate. An arithmetic mean and standard deviation is presented for each treatment. Untransformed-wildtype Arabidopsis served as a glufosinate sensitive control. The DSM-2 (v2) gene imparted herbicide resistance to individual T1 Arabidopsis plants. Within a given treatment, the level of plant response varied greatly and can be attributed to the fact each plant represents an independent transformation event. Of important note, at above 140 g ai/ha glufosinate, there were individuals that were unaffected while some were severely affected."}, "[2]": {"tested_on": "DSM-2 (v2) gene + AAD-12 transformed T1 Arabidopsis", "assay": "T1 Arabidopsis response to glufosinate applied postemergence", "type": "in vivo, Arabidopsis thaliana", "details": "for % Injury Ave / individuals with % Injury 20-40% / individuals with % Injury <20% / individuals with % Injury >40%: 2 WAT", "experimental": "as §1, §2, §3, §4"}, "[3]": {"tested_on": "Agrobacterium tumefaciens C58", "assay": "Bacterial strain response to glufosinate on minimal media", "type": "cell-based", "design": "key: +++ = Heavy Lawn Growth; ++ = Light lawn growth; + = patchy lawn growth; −− = No Growth", "details": "48 hrs @ 25 C", "experimental": "Selected cell lines of Escherichia coli and Agrobacterium tumefaciens were inoculated on minimal media containing incrementally increasing concentrations of Glufosinate (BASTA). The cell lines; BL21-Star (DE3), Top10, DH5α, Agrobacterium tumefaciens C58, and Agrobacterium tumefaciens LBA4404s were initially grown up on complex media. The Escherichia coli strains were grown in LB and the Agrobacterium tumefaciens strains were grown in YEP. Five microliters of bacterial culture was inoculated and dispersed evenly onto minimal media plates containing various concentrations of glufosinate. The concentrations consisted of 0 μg/ml, 250 μg/ml, 500 μg/ml, 1000 μg/ml, 2000 μg/ml, and 4000 μg/ml of BASTA. In addition, the bacterial strains were inoculated onto a plate of complex media as a control—Agrobacterium tumefaciens strains were inoculated on YEP agar plates, and Escherichia coli strains were inoculated on LB agar plates. The plates containing the Escherichia coli strains were incubated at 37° C. for 24 hours. The plates containing the Agrobacterium tumefaciens strains were incubate at 25° C. for 48 hours. […] Table 7 illustrates the capability of the various strains to grow on minimal media containing glufosinate."}, "[4]": {"tested_on": "Escherichia coli BL21-Star (DE3) with AtUbi10 promoter//PAT (3779)", "assay": "Plant promoter driven complementation on glufosinate, plasmid 3779", "type": "cell-based", "design": "key to the marks not given beside the values", "details": "48 hrs @37 C", "experimental": "Plasmid constructs in which the DSM-2 (v2) and PAT gene coding sequences were expressed, under either the viral promoters CsVMV or the plant promoter AtUbi10, were assayed for complementation on minimal media containing glufosinate. The plasmids 3778 (Rb7 MARv3//AtUbi10 promoter//DSM-2 (v2)//Atu Orf 1 3′UTR), 3779 (Rb7 MARv3//AtUbi10 promoter//PAT//Atu Orf 1 3′UTR), 3264 (CsVMV promoter//DSM-2//Atu Orf 24 3′UTR), 3037 (CsVMV promoter//PAT//Atu Orf 25/26 3′UTR), and 770 (control plasmid containing CsVMV promoter//GUS v3//Atu Orf 24 3′UTR) were transformed into Escherichia coli BL21-Star (DE3) and grown up in complex media. Five microliters of the cultures were plated on minimal media containing increasing concentrations of Glufosinate and incubated at 37° C. for 48 hours."}, "[5]": {"details": "140 g ai/ha glufosinate postemergence"}, "[6]": {"details": "280 g ai/ha glufosinate postemergence"}, "[7]": {"details": "560 g ai/ha glufosinate postemergence"}, "[8]": {"details": "1120 g ai/ha glufosinate postemergence"}},
  "data": [
    {"smiles": "CP(=O)(O)CCC(N)C(=O)O", "note": "(stereo not shown) [glufosinate]", "values": [
      {"measurement": "% Injury Ave", "setting": "[1]; [5]", "result": 0.0, "unit": "%"},
      {"measurement": "individuals with % Injury 20-40%", "setting": "[1]; [5]", "result": 0},
      {"measurement": "individuals with % Injury <20%", "setting": "[1]; [5]", "result": 10},
      {"measurement": "individuals with % Injury >40%", "setting": "[1]; [5]", "result": 0},
      {"measurement": "% Injury Ave", "setting": "[1]; [6]", "result": 0.0, "unit": "%"},
      {"measurement": "individuals with % Injury 20-40%", "setting": "[1]; [6]", "result": 0},
      {"measurement": "individuals with % Injury <20%", "setting": "[1]; [6]", "result": 10},
      {"measurement": "individuals with % Injury >40%", "setting": "[1]; [6]", "result": 0},
      {"measurement": "% Injury Ave", "setting": "[1]; [7]", "result": 0.0, "unit": "%"},
      {"measurement": "individuals with % Injury 20-40%", "setting": "[1]; [7]", "result": 0},
      {"measurement": "individuals with % Injury <20%", "setting": "[1]; [7]", "result": 10},
      {"measurement": "individuals with % Injury >40%", "setting": "[1]; [7]", "result": 0},
      {"measurement": "% Injury Ave", "setting": "[1]; [8]", "result": 3.0, "unit": "%"},
      {"measurement": "individuals with % Injury 20-40%", "setting": "[1]; [8]", "result": 0},
      {"measurement": "individuals with % Injury <20%", "setting": "[1]; [8]", "result": 10},
      {"measurement": "individuals with % Injury >40%", "setting": "[1]; [8]", "result": 0},
      {"measurement": "% Injury Ave", "setting": "[2]; [5]", "result": 0.0, "unit": "%"},
      {"measurement": "individuals with % Injury 20-40%", "setting": "[2]; [5]", "result": 0},
      {"measurement": "individuals with % Injury <20%", "setting": "[2]; [5]", "result": 20},
      {"measurement": "individuals with % Injury >40%", "setting": "[2]; [5]", "result": 0},
      {"measurement": "% Injury Ave", "setting": "[2]; [6]", "result": 3.0, "unit": "%"},
      {"measurement": "individuals with % Injury 20-40%", "setting": "[2]; [6]", "result": 1},
      {"measurement": "individuals with % Injury <20%", "setting": "[2]; [6]", "result": 19},
      {"measurement": "individuals with % Injury >40%", "setting": "[2]; [6]", "result": 0},
      {"measurement": "% Injury Ave", "setting": "[2]; [7]", "result": 6.0, "unit": "%"},
      {"measurement": "individuals with % Injury 20-40%", "setting": "[2]; [7]", "result": 0},
      {"measurement": "individuals with % Injury <20%", "setting": "[2]; [7]", "result": 19},
      {"measurement": "individuals with % Injury >40%", "setting": "[2]; [7]", "result": 1},
      {"measurement": "% Injury Ave", "setting": "[2]; [8]", "result": 13.0, "unit": "%"},
      {"measurement": "individuals with % Injury 20-40%", "setting": "[2]; [8]", "result": 1},
      {"measurement": "individuals with % Injury <20%", "setting": "[2]; [8]", "result": 17},
      {"measurement": "individuals with % Injury >40%", "setting": "[2]; [8]", "result": 2},
      {"measurement": "injury of surviving individuals", "setting": "[2]; 1,120 g ai/ha glufosinate, many individuals", "result": "little or no injury"},
      {"measurement": "bacterial growth on minimal media", "setting": "[3]; 250 μg/ml BASTA", "result": "+++"},
      {"measurement": "bacterial growth on minimal media", "setting": "[3]; 500 μg/ml BASTA", "result": "+++"},
      {"measurement": "bacterial growth on minimal media", "setting": "[3]; 1000 μg/ml BASTA", "result": "+++"},
      {"measurement": "bacterial growth on minimal media", "setting": "[3]; 2000 μg/ml BASTA", "result": "++"},
      {"measurement": "bacterial growth on minimal media", "setting": "[3]; 4000 μg/ml BASTA", "result": "−−"},
      {"measurement": "bacterial growth on minimal media", "setting": "[4]; 250 μg/ml BASTA", "result": "++++"},
      {"measurement": "bacterial growth on minimal media", "setting": "[4]; 500 μg/ml BASTA", "result": "+++"},
      {"measurement": "bacterial growth on minimal media", "setting": "[4]; 1000 μg/ml BASTA", "result": "+++"},
      {"measurement": "bacterial growth on minimal media", "setting": "[4]; 2000 μg/ml BASTA", "result": "+++"},
      {"measurement": "bacterial growth on minimal media", "setting": "[4]; 4000 μg/ml BASTA", "result": "+++"}
    ]}
  ]
}
